This is an account of results in patent US11214574B2, “Selective inhibitors of protein arginine methyltransferase 5 (PRMT5)” (Prelude Therapeutics, Incorporated, priority 2018, dated 2022).

The subject of experiment [1] is sDMA marks (SmD3me2s) in Granta-519 cells. The experiment in a line: Western blotting for symmetric di-methyl arginine (sDMA) marks in Granta-519 cells. Format: cell-based. The conditions noted are these: Homo sapiens, 72 h; Granta-519 cell line (values in square brackets), 3 days treatment. On the procedure:
Cell Treatment and Western Blotting for Detecting Symmetric Di-Methyl Arginine (sDMA) Marks
Compound titration and cell culture: Compounds were dissolved in DMSO to make 10 mM stock and 3-fold series dilutions were further conducted to make working stocks top at 1 mM. Granta-519 cells were maintained in PRMI 1640 (Corning Cellgro, Catalog #: 10-040-CV) supplemented with 10% v/v FBS (GE Healthcare, Catalog #: SH30910.03) and U-87 MG cells were maintained in DMEM (Corning Cellgro, Catalog #: 10-013-CV) with 10% FBS and 2 mM Glutamin (Corning Cellgro, Catalog #25005CV).
To determine enzyme inhibition IC50 values in Granta-519 and U-87 MG cells using Western Blot analysis. One day before experiment, Granta-519 cells were passaged to a density of 0.5×10^6 cells/ml. U-87 MG cells were trypsinized and 4×10^5 cells were seeded into 6-well plates and allow to grow overnight. […]
Cells were harvested 3 days later, resuspended in 15 uL PBS, lysed in 4% SDS, and homogenized by passing through homogenizer column (Omega Biotek, Catalog #: HCR003). Total protein concentrations were determined by BCA assay (ThermoFisher Scientific, Catalog #: 23225). […] SmD3me2s bands were quantified by ImageJ. […] IC50 values were calculated using Graphpad Prism ([Inhibitor] vs. normalized response—Variable slope).

In experiment [2] the test system is γ-globin expression in K562 cells. Nature of the experiment: γ-globin induction by quantitative PCR in K562 cells. The conditions noted are these: 0.1 μM, 6 days, N=1. Format: cell-based. On the procedure:
Compounds were dissolved in DMSO to make 10 mM stock solutions, and further diluted to make 1 mM and 0.1 mM stocks.
K562 cells were purchased from ATCC and maintained in Iscove's DMEM (Corning Cellgro, Catalog #15-016-CVR) supplemented with 10% v/v FBS (GE Healthcare, Catalog #: SH30910.03) in a CO2 incubator (5% CO2) at 37° C. Cells were plated at a density of 5×10^5 cells/ml and treated with compound at final concentrations of 0.1 and 1 μM. Media and compound were renewed after 3 days in culture and cells were collected for RNA isolation after 6 days of treatment.
Assessment of γ-Globin Induction by Quantitative PCR
RNA was isolated using Quick-RNA Microprep kit (Zymo Research, Catalog #Z1050), cDNA was synthesized using qScript cDNA SuperMix (Quantabio, Catalog #95048). Quantitative PCR for γ-globin was performed using PerfeCTa SYBR Green FastMix (Quantabio, Catalog #95071) on Bio-Rad CFX Connect Real-Time PCR Detection System. Gene expression analysis was performed using CFX Manager software.
Assessment of γ-Globin Induction by Quantitative PCR in K562 Cells
Compounds were dissolved in DMSO to make 10 mM stock solutions, and further diluted to make 1 mM and 0.1 mM stocks. K562 cells were purchased from ATCC and maintained in Iscove's DMEM (Corning Cellgro, Catalog #15-016-CVR) supplemented with 10% v/v FBS (GE Healthcare, Catalog #: SH30910.03) in a CO2 incubator (5% CO2) at 37° C. […]

Another experiment has as its target PRMT5/MEP50 complex (Homo sapiens (Human), UniProt O14744). Nature of the experiment: PRMT5 biochemical assay (SPA, 3H-SAM). The settings on record: PRMT5/MEP50 2.5 nM, 300 nM AcH4-23 substrate, 1 μM 3H-SAM. On the procedure: Biochemical Assay Protocol
Compounds were solubilized and 3-fold diluted in 100% DMSO. […] Standard reactions were performed in a total volume of 30 μl in assay buffer, with 300 nM histone H4 based AcH4-23 (Anaspec: AS-65002) as substrate. To this was added the PRMT5/MEP50 complex diluted to provide a final assay concentration of 2.5 nM and the compounds were allowed to preincubate for 20 minutes at 37° C. The reaction was initiated by adding S-[3H-methyl]-adenosyl-L-methionine (PerkinElmer: NET155001MC) to final concentration of 1 μM. Following a 30 minutes incubation at 37° C., the reaction was stopped by adding 25 μL of 8M Guanidine HCl. Prepare streptavidin YSI SPA beads (Perkinelmer: RPNQ0012) at 0.3 mg/mL in assay buffer. To each reaction, add 150 μL of SPA beads suspension, and incubated while shaking at room temperature for 30 minutes. The plate was centrifuged at 100×g for 30 second before reading in a scintillation counter. IC50 values were determined by fitting the data to the standard 4 parameters with Hill Slope using GraphPad Prism software.

Chain of PRMT5/MEP50 complex (O14744 whole entry): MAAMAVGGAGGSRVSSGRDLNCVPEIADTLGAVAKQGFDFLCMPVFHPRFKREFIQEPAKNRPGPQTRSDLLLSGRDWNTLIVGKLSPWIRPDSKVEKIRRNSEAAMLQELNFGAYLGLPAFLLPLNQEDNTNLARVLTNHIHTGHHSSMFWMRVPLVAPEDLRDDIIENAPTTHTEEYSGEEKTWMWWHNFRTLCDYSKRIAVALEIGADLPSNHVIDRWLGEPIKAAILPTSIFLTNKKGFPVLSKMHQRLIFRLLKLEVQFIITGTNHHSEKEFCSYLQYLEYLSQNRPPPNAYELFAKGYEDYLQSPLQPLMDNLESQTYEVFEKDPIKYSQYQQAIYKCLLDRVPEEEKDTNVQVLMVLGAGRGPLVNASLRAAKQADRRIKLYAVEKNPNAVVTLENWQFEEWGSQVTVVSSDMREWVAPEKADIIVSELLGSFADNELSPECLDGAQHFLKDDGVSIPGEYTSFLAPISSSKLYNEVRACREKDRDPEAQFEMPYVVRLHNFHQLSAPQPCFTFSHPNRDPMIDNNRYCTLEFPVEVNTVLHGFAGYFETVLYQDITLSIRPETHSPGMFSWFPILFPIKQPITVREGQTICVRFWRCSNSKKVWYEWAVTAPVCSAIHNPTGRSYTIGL
Chain of PRMT5/MEP50 complex (Q9BQA1 whole entry partner): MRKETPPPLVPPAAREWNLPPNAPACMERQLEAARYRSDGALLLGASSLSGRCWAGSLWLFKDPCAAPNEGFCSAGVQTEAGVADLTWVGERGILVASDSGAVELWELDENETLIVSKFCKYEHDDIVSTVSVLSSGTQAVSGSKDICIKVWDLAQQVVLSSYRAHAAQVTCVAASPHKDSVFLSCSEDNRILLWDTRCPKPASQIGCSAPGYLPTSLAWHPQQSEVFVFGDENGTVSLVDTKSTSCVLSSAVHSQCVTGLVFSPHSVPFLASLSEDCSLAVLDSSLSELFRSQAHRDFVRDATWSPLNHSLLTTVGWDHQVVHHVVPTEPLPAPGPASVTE

Regarding `Nc1ncnc2c1ccn2[C@@H]1C[C@H]([C@H]2OCc3cc(Cl)ccc32)[C@@H](O)[C@H]1O` [Example 2A, (1R,2S,3R,5S)-3-(4-amino-7H-pyrrolo[2,3-d]pyrimidin-7-yl)-5-((R)-5-chloro-1,3-dihydroisobenzofuran-1-yl)cyclopentane-1,2-diol], 27 nM corresponded to half-maximal inhibition in experiment [1] (IC50).

For `Nc1ncnc2c1ccn2[C@@H]1O[C@H]([C@@H]2OCc3ccc(Cl)cc32)[C@@H](O)[C@H]1O` [Example 5, (2R,3R,4S,5S)-2-(4-amino-7H-pyrrolo[2,3-d]pyrimidin-7-yl)-5-((R)-6-chloro-1,3-dihydroisobenzofuran-1-yl)tetrahydrofuran-3,4-diol], the “increase in expression of γ-globin” value in experiment [2] is given as 3 fold.

With `Nc1ncnc2c1ccn2[C@@H]1O[C@H]([C@@H]2OCOCc3cc(Cl)ccc32)[C@@H](O)[C@H]1O` [Example 81, (2R,3R,4S,5S)-2-(4-amino-7H-pyrrolo[2,3-d]pyrimidin-7-yl)-5-((R)-7-chloro-1,5-dihydrobenzo[e][1,3]dioxepin-1-yl)tetrahydrofuran-3,4-diol], half-maximal inhibition against PRMT5/MEP50 complex (IC50) was put at 41.5 nM.

For `Cc1ncnc2c1ccn2[C@@H]1O[C@H]([C@@H]2OCCCc3cc(Cl)ccc32)[C@@H](O)[C@H]1O` [Example 101, (2S,3S,4R,5R)-2-((R)-7-chloro-1,3,4,5-tetrahydrobenzo[c]oxepin-1-yl)-5-(4-methyl-7H-pyrrolo[2,3-d]pyrimidin-7-yl)tetrahydrofuran-3,4-diol], the midpoint of inhibition on PRMT5/MEP50 complex, the IC50, lay at 1580 nM.
